Results on two molecules are retold here after patent US5453518A, “Flavone derivatives” (Recordati S.A., Chemical and Pharmaceutical Company, priority 1992, dated 1995).

The subject of data set [1] is rat bladder (K^+ -induced contractions). Nature of the data set: Inhibition of K^+ -induced rat bladder contractions. Further details: species or system rat (male Sprague Dawley). Particulars: 0.5 h, KCl 80 mM, 30 min after drug, isolated rat bladder. On the procedure:
Female Albino Swiss mice [Crl: CD-1 (ICR) BR] with a body weight of 20-30 g and male Sprague Dawley rats [Crl: CD° BR] with a body weight of 200-300 g, from the Charles River Farm, Italy, were used for the trials. The animals were housed with free access to food and water and kept on a forced light-darkness cycle at 22°-24° C. until the day of the trials. Male rats were killed by a blow on their heads and their lower abdomens were opened along the midlines. Their urinary bladders were removed by a transverse dissection above the trigone and cut into two fragments (20-30 mm long, 1-2 mm wide). Each fragment was suspended in an isolated organ bath containing 10 ml of a normal Tyrode solution (composition in mM: NaCl 137, KCl 2.68, MgCl2 1.11, CaCl2 1.8, NaH2 PO4 0.41, NaHCO3 11.9, glucose 5.55) and connected, under a steady 1 g load, to an isometric transducer (DY-1, Basile). The solution was gassed with a mixture of 95% O2 and 5% CO2 and heated at 37° C. After a 60 minute equilibration the tension responses to a single KCl dose (Bath concentration=80 mM) inducing phasic and tonic contractions were measured under isometric conditions at 30 minute intervals. After recording one or more reproducible responses, a solution of the test drug was added to the bath (final concentration from 10^-4 to 10^-9 M) and 30 minutes later a new contraction was induced. The experimental groups were made up of at least 2 preparations from different animals for each drug concentration tested. The IC50 values of the inhibition of the agonist-induced contractions were evaluated by linear regression analysis.

The nature of data set [2]: Acute toxicity in mice (LD50). Particulars: mouse, in vivo, mice, death rate 7 days after administration. It counts as in vivo. On the procedure:
(§1) Female Albino Swiss mice [Crl: CD-1 (ICR) BR] with a body weight of 20-30 g and male Sprague Dawley rats [Crl: CD° BR] with a body weight of 200-300 g, from the Charles River Farm, Italy, were used for the trials. The animals were housed with free access to food and water and kept on a forced light-darkness cycle at 22°-24° C. until the day of the trials.
(§2) The acute toxicity was evaluated in female Albino Swiss mice after intraperitoneal or oral administrations. Four logarithmic scaled doses of the compounds were dissolved or suspended in 0.5% aqueous Methocel and administered at a volume of 10 ml/kg to groups of 4 mice/dose. The death rate was recorded 7 days after the administration.
(§3) The LD50 values and the relevant confidence limits were calculated according to the method of Weil (Biometrics, 8, 249, 1952).

The subject of data set [3] is Female Albino Swiss mice. The data set can be described thus: Acute toxicity in mice (LD50). It counts as in vivo. Particulars: in words; LD50/IC50 compared with Flavoxate. The procedure:
as §1, §2, §3

For data set [4] the following is noted: in words, background; cited from earlier work.
For data set [5] the following is noted: in words, background; cited from earlier work. This is another data set of the same source.
Setting [6] is: phasic contraction, read-out: IC50, inhibition of K^+ -induced rat bladder contractions, Phasic.
Setting [7] is: tonic contraction, read-out: IC50, inhibition of K^+ -induced rat bladder contractions, Tonic.

Where two headings read alike, the source gives them in different places.

What is called IC50 is the concentration at which inhibition is half-maximal. The LD50 is the dose at which mortality reaches 50%. Consider `COc1ccc(C(C#N)(CCCN(C)CCN(C)C(=O)c2cccc3c(=O)c(C)c(-c4ccccc4)oc23)C(C)C)cc1OC.Cl.O` (stereo not drawn) [Example 14, 8-{2-[4-Cyano-4-(3,4-dimethoxyphenyl)-N,5-dimethylhexylamino]-N-methylethylcarbamoyl}-3-methyl-4-oxo-2-phenyl-4H-1-benzopyran hydrochloride hydrate], for which the 50% inhibitory concentration (IC50) in data set [1] (setting [6]) and in data set [1] (setting [7]) was 0.1 µM in each case. The LD50 at 168 h in data set [2] (ip, i.p., read-out: Mice LD50 i.p.) turned out to be 159 mg/kg; in data set [2] (po, p.o., read-out: Mice LD50 p.o.), 346 mg/kg. The “relative therapeutic index (LD50/IC50) versus Flavoxate” value in data set [3] is reported as “considerably safer than Flavoxate”.

As for `Cc1c(-c2ccccc2)oc2c(C(=O)OCCN3CCCCC3)cccc2c1=O` [Flavoxate, 8-(2-(N-piperidino)ethoxycarbonyl)-3-methyl-4-oxo-2-phenyl-4H-1-benzopyran, reference compound], the IC50 in data set [1] (setting [6]) and in data set [1] (setting [7]) was 13 µM throughout. The “stability in physiological fluids” value in data set [4] is on record as “low stability in physiological fluids”. Also, the anticholinergic effects result in data set [5] is “practical absence of anticholinergic effects”.
